Results: publication doi:10.1101/2020.04.05.026310v1 (biorxiv, 2020)

T1: mPDXK (mouse pyridoxal kinase) (Mus musculus, UniProt Q8K183)
T1 sequence (Q8K183 1-312): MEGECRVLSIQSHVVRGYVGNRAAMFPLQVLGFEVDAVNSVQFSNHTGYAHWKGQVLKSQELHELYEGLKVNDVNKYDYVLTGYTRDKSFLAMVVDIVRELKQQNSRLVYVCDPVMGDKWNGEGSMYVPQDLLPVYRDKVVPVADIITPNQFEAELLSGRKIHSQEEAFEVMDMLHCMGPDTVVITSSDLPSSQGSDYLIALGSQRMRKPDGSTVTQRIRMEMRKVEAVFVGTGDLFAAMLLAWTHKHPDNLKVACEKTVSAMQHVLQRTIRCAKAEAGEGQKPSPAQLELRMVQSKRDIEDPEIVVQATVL


Columns and labels:
[1] = molecular target: T1, mPDXK (mouse pyridoxal kinase); test: photometric PLP formation at […] nm, nonlinear variable-slope fit; type: biochemical
[2] = molecular target: T1, mPDXK (mouse pyridoxal kinase); test: photometric PLP formation at […] nm, Dixon plot; type: biochemical
purified protein = substrate: Cc1ncc(CO)c(C=O)c1O; test: purified protein; type: biochemical, Mus musculus; conditions: 1 mM ATP, 1 mM MgCl2, 100 mM KCl, 10 mM Hepes pH 7.3, 37 °C

| Molecule | IC50 [1] [µM] | Ki [2] [µM] | Km (purified protein) [µM] | kcat (purified protein) [s⁻¹] |
| --- | --- | --- | --- | --- |
| C[C@@H]1CC[C@H]2[C@@H](C)C(=O)O[C@@H]3O[C@@]4(C)CC[C@@H]1[C@]32OO4 [artemisinin] | 229 ± 1.3 | 120 ± 2.4 |  |  |
| C[C@H]1[C@H](OC(=O)CCC(=O)O)O[C@@H]2O[C@@]3(C)CC[C@H]4[C@H](C)CC[C@@H]1[C@@]24OO3 [artesunate] | 1445 ± 1.4 | 1250 ± 4.7 |  |  |
| mPDXK (mouse pyridoxal kinase) (Mus musculus) (protein) MEGECRVLSIQSHVVRGYVGNRAAMFPLQVLGFEVDAVNSVQFSNHTGYAHWKGQVLKSQELHELYEGLKVNDVNKYDYVLTGYTRDKSFLAMVVDIVRELKQQNSRLVYVCDPVMGDKWNGEGSMYVPQDLLPVYRDKVVPVADIITPNQFEAELLSGRKIHSQEEAFEVMDMLHCMGPDTVVITSSDLPSSQGSDYLIALGSQRMRKPDGSTVTQRIRMEMRKVEAVFVGTGDLFAAMLLAWTHKHPDNLKVACEKTVSAMQHVLQRTIRCAKAEAGEGQKPSPAQLELRMVQSKRDIEDPEIVVQATVL |  |  | 26.0 ± 5.4 | 0.1436 ± 0.003 |
